What follows are compounds tested against T1, Human Factor XIIa (Homo sapiens, UniProt P00748) (assay: Determination of FXIIa inhibitory activity in vitro (fluorogenic substrate H-DPro-Phe-Arg-AFC)). Conditions: 25° C., residual enzyme activity (initial rate).
T1 construct: Human Factor XIIa (Enzyme Research Laboratories) was incubated; purchased Enzyme Research Laboratories
T1 sequence (P00748 373-615 limits assumed): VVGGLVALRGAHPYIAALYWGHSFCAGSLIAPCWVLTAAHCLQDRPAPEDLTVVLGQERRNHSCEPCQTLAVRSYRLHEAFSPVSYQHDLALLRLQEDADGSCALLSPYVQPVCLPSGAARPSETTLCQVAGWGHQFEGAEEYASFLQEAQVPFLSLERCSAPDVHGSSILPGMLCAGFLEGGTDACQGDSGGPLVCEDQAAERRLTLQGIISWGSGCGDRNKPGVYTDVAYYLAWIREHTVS
T1 sequence (P00748 20-372 partner limits assumed): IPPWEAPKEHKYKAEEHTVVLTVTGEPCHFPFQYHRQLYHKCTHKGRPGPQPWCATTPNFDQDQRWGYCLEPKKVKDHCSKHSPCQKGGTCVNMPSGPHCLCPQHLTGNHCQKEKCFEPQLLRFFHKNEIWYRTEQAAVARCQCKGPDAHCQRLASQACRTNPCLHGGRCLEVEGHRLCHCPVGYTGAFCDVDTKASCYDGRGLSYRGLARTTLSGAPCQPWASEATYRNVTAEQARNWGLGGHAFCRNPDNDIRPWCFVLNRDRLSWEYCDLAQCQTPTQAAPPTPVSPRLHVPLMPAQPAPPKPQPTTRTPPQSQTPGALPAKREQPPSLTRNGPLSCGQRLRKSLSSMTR
Type: biochemical
For `CN(C)Cc1sc(C(=O)NCc2ccc3c(N)nccc3c2)cc1Cl` [Example 2.01], the IC50 was 10 to 40 µM. Work on `Nc1nccc2cc(CNC(=O)c3cc(Cl)c(CNCc4ccccc4)s3)ccc12` [Example 2.02] yielded an IC50 of 10 to 40 µM. `Nc1nccc2cc(CNC(=O)c3cc(Cl)c(CNc4ccccc4)s3)ccc12` [Example 2.03] gave an IC50 of 10 to 40 µM. `Nc1nccc2cc(CNC(=O)c3cc(Cl)c(CNCCN4CCCCC4)s3)ccc12` [Example 2.04] showed an IC50 of 3 to 10 µM. `COc1ccc(CNCc2sc(C(=O)NCc3ccc4c(N)nccc4c3)cc2Cl)cc1` [Example 2.05] showed an IC50 of 10 to 40 µM. With `COc1cccc(CNCc2sc(C(=O)NCc3ccc4c(N)nccc4c3)cc2Cl)c1` [Example 2.06] the IC50 was 10 to 40 µM. In the case of `COc1ccccc1CNCc1sc(C(=O)NCc2ccc3c(N)nccc3c2)cc1Cl` [Example 2.07], the IC50 is reported as 10 to 40 µM. Compound `CN(C)c1ccccc1CNCc1sc(C(=O)NCc2ccc3c(N)nccc3c2)cc1Cl` [Example 2.08] has an IC50 of 10 to 40 µM. With `COCCNCc1sc(C(=O)NCc2ccc3c(N)nccc3c2)cc1Cl` [Example 2.09] the IC50 was 10 to 40 µM. In the case of `Nc1nccc2cc(CNC(=O)c3cc(Cl)c(CNCC4CCOCC4)s3)ccc12` [Example 2.10], the IC50 is reported as 10 to 40 µM. Compound `CS(=O)(=O)c1ccc(CNCc2sc(C(=O)NCc3ccc4c(N)nccc4c3)cc2Cl)cc1` [Example 2.11, N-[(1-Aminoisoquinolin-6-yl)methyl]-4-chloro-5-({[(4-methanesulfonylphenyl)methyl]amino}methyl)thiophene-2-carboxamide] has an IC50 of 3 to 10 µM. Compound `CS(=O)(=O)c1cccc(CNCc2sc(C(=O)NCc3ccc4c(N)nccc4c3)cc2Cl)c1` [Example 2.12] has an IC50 of 3 to 10 µM. Compound `CS(=O)(=O)c1ccccc1CNCc1sc(C(=O)NCc2ccc3c(N)nccc3c2)cc1Cl` [Example 2.13] has an IC50 of 10 to 40 µM. `N#Cc1cccc(CNCc2sc(C(=O)NCc3ccc4c(N)nccc4c3)cc2Cl)c1` [Example 2.15] showed an IC50 of 10 to 40 µM. `CN(C)CCNCc1sc(C(=O)NCc2ccc3c(N)nccc3c2)cc1Cl` [Example 2.16] showed an IC50 of 3 to 10 µM. Work on `Nc1nccc2cc(CNC(=O)c3cc(Cl)c(CNC4CCOCC4)s3)ccc12` [Example 2.17] yielded an IC50 of 10 to 40 µM. With `Nc1nccc2cc(CNC(=O)c3cc(Cl)c(CNCCN4CCOCC4)s3)ccc12` [Example 2.18] the IC50 was 10 to 40 µM. `CN1CCN(CCNCc2sc(C(=O)NCc3ccc4c(N)nccc4c3)cc2Cl)CC1` [Example 2.19] gave an IC50 of 3 to 10 µM. For `CN1CCC(CNCc2sc(C(=O)NCc3ccc4c(N)nccc4c3)cc2Cl)CC1` [Example 2.20], the IC50 was 3 to 10 µM. For `Nc1nccc2cc(CNC(=O)c3cc(Cl)c(CNCCOc4ccccc4)s3)ccc12` [Example 2.21], the IC50 was 10 to 40 µM. `Nc1nccc2cc(CNC(=O)c3cc(Cl)c(CNCCCOc4ccccc4)s3)ccc12` [Example 2.22] gave an IC50 of 10 to 40 µM. Work on `Nc1nccc2cc(CNC(=O)c3cc(Cl)c(CNCCn4ccnc4)s3)ccc12` [Example 2.23] yielded an IC50 of 10 to 40 µM. Work on `CC(=O)N1CCN(CCNCc2sc(C(=O)NCc3ccc4c(N)nccc4c3)cc2Cl)CC1` [Example 2.24] yielded an IC50 of 10 to 40 µM. `Nc1nccc2cc(CNC(=O)c3cc(Cl)c(CNCCN4CCS(=O)(=O)CC4)s3)ccc12` [Example 2.25] gave an IC50 of 10 to 40 µM. With `CC(C)CCNCc1sc(C(=O)NCc2ccc3c(N)nccc3c2)cc1Cl` [Example 2.26] the IC50 was 10 to 40 µM. `CC(=O)NCCNCc1sc(C(=O)NCc2ccc3c(N)nccc3c2)cc1Cl` [Example 2.27] was tested, and the IC50 was 10 to 40 µM. With `Nc1nccc2cc(CNC(=O)c3cc(Cl)c(CNCc4ccc5c(c4)OCO5)s3)ccc12` [Example 2.28] the IC50 was 10 to 40 µM. `CN1CCCc2cc(CNCc3sc(C(=O)NCc4ccc5c(N)nccc5c4)cc3Cl)ccc21` [Example 2.29] was tested, and the IC50 was 10 to 40 µM. `Nc1nccc2cc(CNC(=O)c3cc(Cl)c(CNCc4ccccn4)s3)ccc12` [Example 2.30] was tested, and the IC50 was 10 to 40 µM. `Nc1nccc2cc(CNC(=O)c3cc(Cl)c(CNCc4ccncc4)s3)ccc12` [Example 2.31] gave an IC50 of 3 to 10 µM. `Nc1nccc2cc(CNC(=O)c3cc(Cl)c(CNCc4cccnc4)s3)ccc12` [Example 2.32] showed an IC50 of 3 to 10 µM. `CN(C)CCCNCc1sc(C(=O)NCc2ccc3c(N)nccc3c2)cc1Cl` [Example 2.33] was tested, and the IC50 was 3 to 10 µM. `CC(C)N1CCN(CCCNCc2sc(C(=O)NCc3ccc4c(N)nccc4c3)cc2Cl)CC1` [Example 2.34] showed an IC50 of 3 to 10 µM. `CN(C)CCOc1ccc(CNCc2sc(C(=O)NCc3ccc4c(N)nccc4c3)cc2Cl)cc1` [Example 2.35] was tested, and the IC50 was 3 to 10 µM. `CN1CCN(CCCNCc2sc(C(=O)NCc3ccc4c(N)nccc4c3)cc2Cl)CC1` [Example 2.37] was tested, and the IC50 was 3 to 10 µM. In the case of `Nc1nccc2cc(CNC(=O)c3cc(Cl)c(CNCCN4CCCC4=O)s3)ccc12` [Example 2.38], the IC50 is reported as 10 to 40 µM. `CN1CCN(c2ccccc2CNCc2sc(C(=O)NCc3ccc4c(N)nccc4c3)cc2Cl)CC1` [Example 2.39] was tested, and the IC50 was 10 to 40 µM. `Nc1nccc2cc(CNC(=O)c3cc(Cl)c(CNCC4CCN(Cc5ccccc5)CC4)s3)ccc12` [Example 2.40] was tested, and the IC50 was 3 to 10 µM. In the case of `Nc1nccc2cc(CNC(=O)c3cc(Cl)c(CNCc4ccc(N5CCCCC5=O)cc4)s3)ccc12` [Example 2.41], the IC50 is reported as 10 to 40 µM. Work on `Nc1nccc2cc(CNC(=O)c3cc(Cl)c(CNCc4cccc(N5CCCC5=O)c4)s3)ccc12` [Example 2.42] yielded an IC50 of 10 to 40 µM. `Nc1nccc2cc(CNC(=O)c3cc(Cl)c(CNCC(=O)NC4CCCC4)s3)ccc12` [Example 2.43] was tested, and the IC50 was 10 to 40 µM. `CN(Cc1sc(C(=O)NCc2ccc3c(N)nccc3c2)cc1Cl)CC1CCN(c2ccncc2)CC1` [Example 2.44] was tested, and the IC50 was 3 to 10 µM. `CN(C)CCCOc1cccc(CN(C)Cc2sc(C(=O)NCc3ccc4c(N)nccc4c3)cc2Cl)c1` [Example 2.45] gave an IC50 of 3 to 10 µM. For `CN(Cc1sc(C(=O)NCc2ccc3c(N)nccc3c2)cc1Cl)C1CCOCC1` [Example 2.46], the IC50 was 10 to 40 µM. `CN1CCC(N(C)Cc2sc(C(=O)NCc3ccc4c(N)nccc4c3)cc2Cl)CC1` [Example 2.47] gave an IC50 of 10 to 40 µM. In the case of `COc1ccc(NCc2sc(C(=O)NCc3ccc4c(N)nccc4c3)cc2Cl)cc1` [Example 2.48], the IC50 is reported as 10 to 40 µM. In the case of `CS(=O)(=O)c1ccc(NCc2sc(C(=O)NCc3ccc4c(N)nccc4c3)cc2Cl)cc1` [Example 2.49], the IC50 is reported as 3 to 10 µM. For `N#Cc1ccc(CNCc2sc(C(=O)NCc3ccc4c(N)nccc4c3)cc2Cl)cc1` [Example 2.50], the IC50 was 10 to 40 µM. `CC(=O)NCCCNCc1sc(C(=O)NCc2ccc3c(N)nccc3c2)cc1Cl` [Example 2.51] gave an IC50 of 10 to 40 µM. `CN(C)CCCOc1cccc(CNCc2sc(C(=O)NCc3ccc4c(N)nccc4c3)cc2Cl)c1` [Example 2.52] showed an IC50 of 3 to 10 µM. `CN1C(C)(C)CC(NCc2sc(C(=O)NCc3ccc4c(N)nccc4c3)cc2Cl)CC1(C)C` [Example 2.53] gave an IC50 of 3 to 10 µM. With `Nc1nccc2cc(CNC(=O)c3cc(Cl)c(CNCCn4cncn4)s3)ccc12` [Example 2.54] the IC50 was 3 to 10 µM. `CC(=O)Nc1cccc(NCc2sc(C(=O)NCc3ccc4c(N)nccc4c3)cc2Cl)c1` [Example 2.55] was tested, and the IC50 was 10 to 40 µM. Work on `CC(C)N(CCNCc1sc(C(=O)NCc2ccc3c(N)nccc3c2)cc1Cl)C(C)C` [Example 2.56] yielded an IC50 of 3 to 10 µM. `Nc1nccc2cc(CNC(=O)c3cc(Cl)c(CNCc4ccc(CN5CCCC5=O)cc4)s3)ccc12` [Example 2.57] gave an IC50 of 3 to 10 µM. Compound `Nc1nccc2cc(CNC(=O)c3cc(Cl)c(CN4CCN(Cc5cccnc5)CC4)s3)ccc12` [Example 5.01] has an IC50 of 10 to 40 µM. Work on `CN1CCCN(Cc2sc(C(=O)NCc3ccc4c(N)nccc4c3)cc2Cl)CC1` [Example 5.02] yielded an IC50 of 3 to 10 µM. Work on `Nc1nccc2cc(CNC(=O)c3cc(Cl)c(CN4CCOCC4)s3)ccc12` [Example 5.03] yielded an IC50 of 10 to 40 µM. For `CN1CCN(Cc2sc(C(=O)NCc3ccc4c(N)nccc4c3)cc2Cl)CC1` [Example 5.04], the IC50 was 10 to 40 µM. In the case of `CC(=O)N1CCN(Cc2sc(C(=O)NCc3ccc4c(N)nccc4c3)cc2Cl)CC1` [Example 5.05], the IC50 is reported as 10 to 40 µM. For `CC(C)N1CCN(Cc2sc(C(=O)NCc3ccc4c(N)nccc4c3)cc2Cl)CC1` [Example 5.06], the IC50 was 10 to 40 µM. Work on `CS(=O)(=O)N1CCN(Cc2sc(C(=O)NCc3ccc4c(N)nccc4c3)cc2Cl)CC1` [Example 5.07] yielded an IC50 of 10 to 40 µM. `Nc1nccc2cc(CNC(=O)c3cc(Cl)c(CN4CCC(F)(F)C4)s3)ccc12` [Example 5.08] was tested, and the IC50 was 10 to 40 µM. For `Nc1nccc2cc(CNC(=O)c3cc(Cl)c(CN4Cc5ccccc5C4)s3)ccc12` [Example 5.09], the IC50 was 10 to 40 µM. Compound `Nc1nccc2cc(CNC(=O)c3cc(Cl)c(CN4CCc5ncccc5C4)s3)ccc12` [Example 5.10] has an IC50 of 3 to 10 µM. In the case of `Nc1nccc2cc(CNC(=O)c3cc(Cl)c(CN4CC(O)C4)s3)ccc12` [Example 5.11], the IC50 is reported as 10 to 40 µM. Compound `Nc1nccc2cc(CNC(=O)c3cc(Cl)c(CN4CCC(CCN5CCCC5=O)CC4)s3)ccc12` [Example 5.13] has an IC50 of 10 to 40 µM. `Nc1nccc2cc(CNC(=O)c3cc(Cl)c(CN4CCC5(CC4)OCCO5)s3)ccc12` [Example 5.14] gave an IC50 of 10 to 40 µM. With `Nc1nccc2cc(CNC(=O)c3cc(Cl)c(CN4CCN(c5cnccn5)CC4)s3)ccc12` [Example 5.15] the IC50 was 10 to 40 µM. In the case of `CS(=O)(=O)c1ccc(OCc2sc(C(=O)NCc3ccc4c(N)nccc4c3)cc2Cl)cc1` [Example 7.01], the IC50 is reported as 10 to 40 µM. For `Cn1cnc2cc(OCc3sc(C(=O)NCc4ccc5c(N)nccc5c4)cc3Cl)ccc21` [Example 7.02], the IC50 was 10 to 40 µM.

From patent publication US20220289727A1, “ENZYME INHIBITORS” (KALVISTA PHARMACEUTICALS LIMITED, priority 2019, published 2022)
